Reference: patent US10167262B2, “Herbicidal substituted 3-arylpyrazoles” (FMC CORPORATION, priority 2014, dated 2019)

Legend:
Type in all cases: in vivo
[1] = tested on: galium (catchweed bedstraw, Galium aparine); assay: Test C pre-/postemergence greenhouse test, plant response rating 0-100; details: Postemergence
Procedure, shortened: (§1)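 Pre-emergence soil and post-emergence foliar sprays were applied simultaneously to seeded loam–sand pots and to 1–4-leaf plants in peat medium; greenhouse holding lasted 13–15 days, then plants were scored visually from 0 (no effect) to 100 (complete control).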

[2] = tested on: lambsquarters (Chenopodium album); assay: as above; details: Postemergence
Procedure, shortened: as §1

[3] = tested on: pigweed (Amaranthus retroflexus); assay: as above; details: Postemergence
Procedure, shortened: as §1

corn (Zea mays) = assay: as above; details: Postemergence
Procedure, shortened: as §1

[4] = tested on: large (Lg) crabgrass (Digitaria sanguinalis); assay: as above; details: Postemergence
Procedure, shortened: as §1

[5] = tested on: blackgrass (Alopecurus myosuroides); assay: as above; details: Postemergence; for Plant response rating, Blackgrass: scale 0 to 100
Procedure, shortened: as §1

[6] = tested on: winter wheat (Triticum aestivum); assay: as above; details: Postemergence
Procedure, shortened: as §1

[7] = tested on: yellow nutsedge (Cyperus esculentus); assay: as above; details: Postemergence
Procedure, shortened: as §1

[8] = tested on: morningglory (Ipomoea coccinea); assay: as above; details: Postemergence
Procedure, shortened: as §1

[9] = tested on: ragweed (common ragweed, Ambrosia elatior); assay: as above; details: Postemergence
Procedure, shortened: as §1

[10] = tested on: johnsongrass (Sorghum halepense); assay: as above; details: Postemergence
Procedure, shortened: as §1

[11] = tested on: velvetleaf (Abutilon theophrasti); assay: as above; details: Postemergence
Procedure, shortened: as §1

[12] = tested on: winter barley (Hordeum vulgare); assay: Test C postemergence greenhouse test, plant response rating 0-100; details: for Plant response rating, Barley: scale 0 to 100
Procedure, shortened: (§2)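 Potted in peat/vermiculite mix; postemergence application at 1–4 leaves (2–18 cm); greenhouse 13–15 d; visual score 0–100 relative to untreated plants; dash = no test result.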

[13] = tested on: windgrass (Apera spica-venti); assay: as above
Procedure, shortened: as §2

Question: How did the “Plant response rating (0 to 100), Galium” value ([1]; 31 g ai/ha) turn out when Cn1cc(C(=NN2CCCC2)c2ccccc2)c(-c2cc(Cl)c(Cl)c(Cl)c2)n1 [Compound 25] was run?
Answer: 0

Question: And the “Plant response rating (0 to 100), Galium” value ([1]; 62 g ai/ha)?
Answer: 0

Question: And the “Plant response rating (0 to 100), Galium” value ([1]; 125 g ai/ha)?
Answer: 0

Question: And the “Plant response rating, Galium” value ([1]; 250 g ai/ha, scale 0 to 100)?
Answer: 0

Question: And the “Plant response rating (0 to 100), Lambsquarters” value ([2]; 62 g ai/ha)?
Answer: 0

Question: What about the “Plant response rating (0 to 100), Lambsquarters” value ([2]; 125 g ai/ha) of the same compound?
Answer: 0

Question: And the “Plant response rating, Lambsquarters” value ([2]; 250 g ai/ha, scale 0 to 100)?
Answer: 20

Question: And the “Plant response rating (0 to 100), Pigweed” value ([3]; 62 g ai/ha)?
Answer: 80

Question: And the “Plant response rating (0 to 100), Pigweed” value ([3]; 125 g ai/ha)?
Answer: 98

Question: What about the “Plant response rating, Pigweed” value ([3]; 250 g ai/ha, scale 0 to 100) of the same compound?
Answer: 100

Question: What about the “Plant response rating (0 to 100), Corn” value (corn (Zea mays); 31 g ai/ha) of the same compound?
Answer: 0

Question: What about the “Plant response rating (0 to 100), Corn” value (corn (Zea mays); 62 g ai/ha) of the same compound?
Answer: 0

Question: What about the “Plant response rating (0 to 100), Corn” value (corn (Zea mays); 125 g ai/ha) of the same compound?
Answer: 0

Question: What about the “Plant response rating, Corn” value (corn (Zea mays); 250 g ai/ha, scale 0 to 100) of the same compound?
Answer: 0

Question: What about the “Plant response rating (0 to 100), Crabgrass, Large” value ([4]; 31 g ai/ha) of the same compound?
Answer: 0

Question: And the “Plant response rating (0 to 100), Crabgrass, Large” value ([4]; 62 g ai/ha)?
Answer: 0

Question: What about the “Plant response rating (0 to 100), Crabgrass, Large” value ([4]; 125 g ai/ha) of the same compound?
Answer: 0

Question: What about the “Plant response rating, Crabgrass, Large” value ([4]; 250 g ai/ha, scale 0 to 100) of the same compound?
Answer: 0

Question: And the “Plant response rating (0 to 100), Blackgrass” value ([5]; 31 g ai/ha)?
Answer: 0

Question: And the “Plant response rating (0 to 100), Blackgrass” value ([5]; 62 g ai/ha)?
Answer: 0

Question: What about the “Plant response rating, Blackgrass” value ([5]; 125 g ai/ha) of the same compound?
Answer: 0

Question: And the “Plant response rating, Blackgrass” value ([5]; 250 g ai/ha)?
Answer: 5

Question: And the “Plant response rating (0 to 100), Wheat” value ([6]; 62 g ai/ha)?
Answer: 0

Question: And the “Plant response rating (0 to 100), Wheat” value ([6]; 125 g ai/ha)?
Answer: 0

Question: What about the “Plant response rating, Wheat” value ([6]; 250 g ai/ha, scale 0 to 100) of the same compound?
Answer: 0

Question: What about the “Plant response rating (0 to 100), Nutsedge, Yellow” value ([7]; 62 g ai/ha) of the same compound?
Answer: 0

Question: What about the “Plant response rating (0 to 100), Nutsedge, Yellow” value ([7]; 125 g ai/ha) of the same compound?
Answer: 0

Question: What about the “Plant response rating, Nutsedge, Yellow” value ([7]; 250 g ai/ha, scale 0 to 100) of the same compound?
Answer: 0

Question: What about the “Plant response rating (0 to 100), Morningglory” value ([8]; 62 g ai/ha) of the same compound?
Answer: 0

Question: And the “Plant response rating (0 to 100), Morningglory” value ([8]; 125 g ai/ha)?
Answer: 0

Question: And the “Plant response rating, Morningglory” value ([8]; 250 g ai/ha, scale 0 to 100)?
Answer: 0

Question: And the “Plant response rating (0 to 100), Ragweed” value ([9]; 62 g ai/ha)?
Answer: 0

Question: What about the “Plant response rating (0 to 100), Ragweed” value ([9]; 125 g ai/ha) of the same compound?
Answer: 0

Question: What about the “Plant response rating, Ragweed” value ([9]; 250 g ai/ha, scale 0 to 100) of the same compound?
Answer: 0

Question: What about the “Plant response rating (0 to 100), Johnsongrass” value ([10]; 62 g ai/ha) of the same compound?
Answer: 0

Question: And the “Plant response rating (0 to 100), Johnsongrass” value ([10]; 125 g ai/ha)?
Answer: 0

Question: And the “Plant response rating, Johnsongrass” value ([10]; 250 g ai/ha, scale 0 to 100)?
Answer: 0

Question: What about the “Plant response rating (0 to 100), Velvetleaf” value ([11]; 62 g ai/ha) of the same compound?
Answer: 55

Question: And the “Plant response rating (0 to 100), Velvetleaf” value ([11]; 125 g ai/ha)?
Answer: 65

Question: What about the “Plant response rating, Velvetleaf” value ([11]; 250 g ai/ha, scale 0 to 100) of the same compound?
Answer: 70

Question: And the “Plant response rating (0 to 100), Barley” value ([12]; 31 g ai/ha)?
Answer: 0

Question: What about the “Plant response rating (0 to 100), Barley” value ([12]; 62 g ai/ha) of the same compound?
Answer: 0

Question: What about the “Plant response rating, Barley” value ([12]; 125 g ai/ha) of the same compound?
Answer: 5

Question: And the “Plant response rating, Barley” value ([12]; 250 g ai/ha)?
Answer: 10

Question: What about the “Plant response rating (0 to 100), Windgrass” value ([13]; 62 g ai/ha) of the same compound?
Answer: 0

Question: What about the “Plant response rating (0 to 100), Windgrass” value ([13]; 125 g ai/ha) of the same compound?
Answer: 0

Question: What about the “Plant response rating, Windgrass” value ([13]; 250 g ai/ha, scale 0 to 100) of the same compound?
Answer: 25
